Laboratory results taken from patent publication US20240240150A1, “SPONTANEOUSLY BEATING CARDIAC ORGANOID CONSTRUCTS AND INTEGRATED BODY-ON-CHIP APPARATUS CONTAINING THE SAME” (Wake Forest University Health Sciences, priority 2015, published 2024).
Like-named read-outs stand apart in the source and are kept apart here. Each block holds one molecule with its values, some of them ahead of it.

What was measured:
cardiac organoids [1] = conditions: for increase in beating rate: 0.5 μM
Experimental: Integrated organoid system and integrated response to drugs. To evaluate how the combination of both organoid types together impact drug response, epinephrine and propranolol were tested independently and jointly. In the independent scenario, organoid platforms were prepared in two groups: Group 1 consisted of a set of organoids comprised only of cardiac, with “blank” liver modules. Group 2 consisted of both cardiac and liver. However, it should be noted that cardiac and liver constructs were kept separate for the incubation period, while the drug was administered to the liver construct or “blank” liver module, after which the modules were joined for 30 minutes prior to cardiac beating rate assessment. Baseline cardiac organoid beating rates were determined in each group prior to drug administration. Then, the drugs—either 0.1 μM propranolol or 0.5 μM epinephrine—were administered, allowed to incubate for 1 hour, after which the modules were joined, and data was collected.

cardiac organoids [2] = assay: Cardiac organoid beating rate response to drugs (onboard camera / microscope); assay type: cell-based, human
From the text: Cardiac construct baseline function monitoring and beat rate response to drugs. […] First the cover of the webcam is disassembled to retrieve the CMOS sensor. The lens of the webcam is then detached from its initial location, flipped, and integrated back to the holder to convert it into a magnifying lens. A base was then constructed for the mini-microscope to fit onto the bottom of the bioreactors. The base consisted of a dual-layer structure of PMMA sheets (⅛″ Thick, 12″×12″, McMaster 8505K11) cut into the dimensions of the bioreactors using a laser cutter (VLS 2.30 Desktop Laser System, Universal Laser Systems). Using 4 sets of screw/bolts, the CMOS module was tightly clamped in between a pair of PMMA structures. Additional 4 sets of screw/bolts were further mounted at the corners of the structures to function as the focus knobs. Only very minor alteration to the bioreactor itself was needed, i.e., 4 extra holes were drilled on the lower PMMA board to fit the imager at the bottom. During culture of cardiac constructs, videos were captured to analyze cardiac organoid beating rates. Video files were analyzed using custom written MatLab code with a series of MatLab functions. The software created a reference frame, based on the first frame of the video, and compared pixels in each subsequent frame, determining which pixels represented movement over time. The moving pixels in each frame were then used to generate a black and white pixilated representation of beat behavior, allowing visualization of beat propagation, and generation a plot showing the number of moving pixels versus time, allowing determination of beating rates.

[3] = tested on: bioprinted cardiac tissue constructs (rat neonatal cardiomyocytes); assay: Bioprinted rat cardiac tissue constructs, response to cardiac drugs; assay type: cell-based
From the text: In this study, 3D bioprinting was applied to fabricate functional and contractile cardiac tissue constructs. Rat neonatal heart tissues were obtained to isolate cardiomyocytes, and the cells were suspended in a fibrin-based hydrogel bioink. Cell-laden hydrogel was printed through a 300-micron nozzle by pneumatic pressure. […] Moreover, tissue development of the printed cardiac tissue could accelerate by Notch signal blockade.

cardiac organoids [4] = tested on: cardiac organoids
Experimental: To test the integrated response of the liver and cardiac system to epinephrine and propranolol combinations, the experimental groups described above were prepared and the same protocol (individual unit incubation prior to joining of modules) was followed. However, the incubation period was lengthened to overnight (18 hours). Both Group 1 and Group 2 were administered 0.1 uM propranolol. After the incubation period, the modules were joined and 0.5 uM epinephrine was be administered to both groups. Additionally, in parallel, a Group 3 condition was employed, which mirrored Group 2, but used a 2D hepatocyte culture (1-2 million cells/well) instead of the liver construct as a 2D comparison.

liver organoids [5] = assay: Troglitazone toxicity, organoid viability by CellTiter-Glo ATP assay; assay type: cell-based, human; conditions: liver organoids treated for 48 hours
Experimental: Organoid viability assays. Organoid viability was assessed by ATP production as a measure of metabolic activity as detailed in the following white paper^1. CellTiter-Glo assay (Promega) was used to measure ATP by transferring one organoid/well to a black, opaque 96-well plate (Corning). Blanks were included using HCM medium (Lonza) at 80 μl/well. 80 μl of prepared CellTiter-Glo buffer was added per well and plate was placed on shaker for 5 minutes to lyse cells, then further incubated for 15 minutes protected from light. Plate was read using plate reader (SpectraMax M5, Molecular Devices) with an integration time of 0.5 see/well. Sample time points were compared via two-sample unequal variance t-test. Live/dead stain was also used to assess viability. Organoids were washed in PBS and then stained with live/dead viability/cytotoxicity kit (Life Technologies): 2 μL/mL ethidium homodimer-1 and 0.5 μL/mL calcein AM (diluted in PBS) for 45 minutes at room temperature, protected from light. Organoids were transferred to a depression glass slide (Erie Scientific) and then imaged using TCS LSI macro confocal microscope with 5× macro objective (Leica).
Troglitazone toxicity. […] Organoid viability was measured using the CellTiter-Glo assay (Promega) as recorded as previously described.

liver organoids [6] = assay: Phospholipid accumulation, HCS LipidTox Phospholipidosis Detection Stain; assay type: cell-based, human; conditions: 48 hour treatment, even with lower concentrations
Experimental: Accumulation of phospholipids within the organoids was imaged using the HCS LipidTox Phospholipidosis Detection Stain (Invitrogen). LipidTox reagent was added to medium at the same time as the troglitazone at a ratio of 1:500. Following 48 hour drug treatment, organoids were fixed in 4% paraformaldehyde (Sigma Aldrich), washed in PBS, and then transferred to a depression glass slide (Erie Scientific) for imaging using TCS LSI macro confocal with 5× macro objective (Leica).

[7] = tested on: liver constructs (bioprinted liver organoids); assay: On-chip liver construct urea secretion (colorimetric assay); assay type: cell-based, human
Experimental: (§1) Liver construct synthetic functionality, response to acetaminophen insult, and intervention with N-acetyl-L-cysteine. To assess the response of the liver organoid system to toxic drug insult, acetaminophen was employed. Liver organoids were cultured in microreactors as described before for 14 days. Media samples were collected on days 3, 6, 10, and 14. After media collection on day 6, 1 set of organoids continued with normal media, 1 set of organoids were treated with 1 mM APAP, and 1 set of organoids were treated with 10 mM APAP. To assess the effectiveness of a countermeasure treatment to be used in the liver organoid system, N-acetyl-L-cysteine was explored as a clinically relevant treatment against APAP-induced toxicity. This final set of organoids was treated with 10 mM APAP and 20 mM N-acetyl-L-cysteine. During media changes, groups receiving the drug treatment received fresh HCM also containing the appropriate drug concentration.
(§2) For assessment of liver organoid albumin and urea secretion under baseline conditions as well as during exposure to APAP, collected media aliquots were analyzed using a Human Albumin ELISA assay (Alpha Diagnostic International) and the amount of secreted urea in the collected media was determined using a Urea colorimetric assay (BioAssay Systems). For viability assessment, organoids were removed immediately after the final media collection time point (day 14) for staining by LIVE/DEAD viability/cytotoxicity kits (Life Technologies). Staining consisted of incubation in 2 uM calcein AM (stains live cells green) and 4 uM EthD-1 (stains dead cells red) in a 1:1 PBS:HCM solution. […] Additionally, media samples were analyzed for presence of lactate dehydrogenase (LDH), an enzyme that is released from cells after toxicity causes cell membrane rupture, using a Lactate Dehydrogenase Assay Kit (Abcam), and for α-GST, a hepatocyte-specific enzyme also released from cells after exposure to toxicity, using an α-GST Assay Kit (Oxford Biomedical Research).

[8] = tested on: liver constructs (bioprinted liver organoids); assay: On-chip liver construct alpha-GST release into media; assay type: cell-based, human; conditions: 10 mM APAP + 20 mM NAC
Experimental: Liver construct synthetic functionality, response to acetaminophen insult, and intervention with N-acetyl-L-cysteine. To assess the response of the liver organoid system to toxic drug insult, acetaminophen was employed. Liver organoids were cultured in microreactors as described before for 14 days. Media samples were collected on days 3, 6, 10, and 14. After media collection on day 6, 1 set of organoids continued with normal media, 1 set of organoids were treated with 1 mM APAP, and 1 set of organoids were treated with 10 mM APAP. […]
as §2, with “Systems).” for “Systems). For viability assessment, organoids were removed immediately after the final media collection time point (day 14) for staining by LIVE/DEAD viability/cytotoxicity kits (Life Technologies). Staining consisted of incubation in 2 uM calcein AM (stains live cells green) and 4 uM EthD-1 (stains dead cells red) in a 1:1 PBS:HCM solution.”

[9] = tested on: liver constructs (bioprinted liver organoids); assay: On-chip liver construct lactate dehydrogenase release into media; assay type: cell-based, human; conditions: for LDH concentration in the media: day 10
[10] = tested on: liver constructs (bioprinted liver organoids); assay: On-chip liver construct albumin secretion (Human Albumin ELISA); assay type: cell-based; conditions: for albumin levels vs 0 mM control: administered after day 6
Experimental: as §1
For assessment of liver organoid albumin and urea secretion under baseline conditions as well as during exposure to APAP, collected media aliquots were analyzed using a Human Albumin ELISA assay (Alpha Diagnostic International) and the amount of secreted urea in the collected media was determined using a Urea colorimetric assay (BioAssay Systems). For viability assessment, organoids were removed immediately after the final media collection time point (day 14) for staining by LIVE/DEAD viability/cytotoxicity kits (Life Technologies). Staining consisted of incubation in 2 uM calcein AM (stains live cells green) and 4 uM EthD-1 (stains dead cells red) in a 1:1 PBS:HCM solution. Following staining, organoids were washed in PBS, fixed in 4% PFA, transferred to PBS, and imaged using macro-confocal microscopy (Leica TCS LSI). Additionally, media samples were analyzed for presence of lactate dehydrogenase (LDH), an enzyme that is released from cells after toxicity causes cell membrane rupture, using a Lactate Dehydrogenase Assay Kit (Abcam), and for α-GST, a hepatocyte-specific enzyme also released from cells after exposure to toxicity, using an α-GST Assay Kit (Oxford Biomedical Research).

[11] = tested on: liver constructs (bioprinted liver organoids); assay: On-chip liver construct viability by LIVE/DEAD staining after APAP / NAC; assay type: cell-based; conditions: day 14
Experimental: as §1, §2

Structure (SMILES): CNC[C@H](O)c1ccc(O)c(O)c1 [epinephrine]
increase in beating rate (cardiac organoids [1]; cardiac-only system): approximately 40%
increase in beating rate (cardiac organoids [1]; with liver component): ~30%
concentration at which beating rate plateau is reached (cardiac organoids [2]): ≥ 5 µM
organoid beating rate, dose response (cardiac organoids [2]; 0, 0.1, 0.5, 5 and 50 uM): increased in a dose-dependent manner
physiological responses (beating frequency and contraction forces) [3]: showed physiological responses
restoration of the epinephrine-induced increase in beat rate (cardiac organoids [4]; 0.5 μM epinephrine after 0.1 μM propranolol, 2D hepatocyte culture instead of liver construct): failed achieve any restoration
increase in BPM (cardiac organoids [4]; 0.5 μM epinephrine after 0.1 μM propranolol, Group 2, liver component added): 1.25 fold
response relative to control epinephrine-only response (cardiac organoids [4]; 0.5 μM epinephrine after 0.1 μM propranolol, Group 2 with 3D liver organoids): approximately 50%
increase in cardiac BPM (cardiac organoids [4]; 0.5 μM epinephrine, controls with no propranolol): 1.5 fold

Structure (SMILES): Cc1c(C)c2c(c(C)c1O)CCC(C)(COc1ccc(CC3SC(=O)NC3=O)cc1)O2 (stereo not drawn) [troglitazone]
viability (ATP quantification), dose-response (liver organoids [5]): decrease in viability as concentration of drug is increased
phospholipid accumulation (liver organoids [6]): Considerable phospholipid accumulation

Structure (SMILES): C[N+](C)(C)CCOC(N)=O [carbachol]
physiological responses (beating frequency and contraction forces) [3]: showed physiological responses

Structure (SMILES): CC(=O)N[C@@H](CS)C(=O)O [NAC, N-acetyl-L-cysteine]
urea levels vs 10 mM APAP ([7]; 10 mM APAP + 20 mM NAC): significantly greater than the 10 mM APAP urea levels
urea levels vs control organoids ([7]; 10 mM APAP + 20 mM NAC): not significantly different than the control organoids
alpha-GST in media ([8]; day 10): about 6 ng/mL
alpha-GST in media ([8]; day 14): ~5 ng/mL
LDH concentration in the media ([9]; 10 mM APAP + 20 mM NAC): almost identical to the control group
albumin levels vs 10 mM APAP group ([10]; 10 mM APAP + 20 mM NAC): significantly greater than those of the 10 mM APAP treated group
viability (LIVE/DEAD), rescue from APAP ([11]; 10 mM APAP + 20 mM NAC): reduced the level of morbidity

Structure (SMILES): C=C[C@H]1C[N@@]2CC[C@H]1C[C@@H]2[C@@H](O)c1ccnc2ccc(OC)cc12 [quinidine]
organoid beating rate (cardiac organoids [2]; 1 μM): slowed organoid beating rate

Structure (SMILES): CC(C)NCC(O)COc1cccc2ccccc12 (stereo not drawn) [propranolol]
decrease in beating rate (cardiac organoids [1]; 0.1 μM, cardiac-only system): ~10%
change in beating rate (cardiac organoids [1]; 0.1 μM, in the presence of the liver construct): no decrease in beating rate
prevention of epinephrine-induced increase in beating rate (cardiac organoids [2]; 0, 0.5, 5, 20 uM propranolol for 20 minutes, then 5 uM epinephrine): more effectively prevented epinephrine-induced increases in beating rates
block of beta-adrenergic effects of 0.5 μM epinephrine (cardiac organoids [4]; 0.1 μM propranolol, Group 1, no liver organoids): successfully blocked

Structure (SMILES): CC(C)NCC(O)c1ccc(O)c(O)c1 (stereo not drawn) [Isoproterenol]
organoid beating rate (cardiac organoids [2]; 0.1 mM): increased organoid beating rate

urea levels ([7]; 1 mM and 10 mM APAP, after administration): drop in a dose dependent manner
LDH concentration in the media ([9]; 10 mM APAP): clear increase in LDH concentration
LDH levels ([9]; 10 mM APAP, day 14): drop down to baseline
albumin levels vs 0 mM control ([10]; 1 mM APAP): significantly decreased
albumin levels vs 0 mM control ([10]; 10 mM APAP): significantly decreased
albumin levels ([10]; 10 mM APAP, day 14): nearly immeasurable
Structure (SMILES): CC(=O)Nc1ccc(O)cc1 [APAP, acetaminophen]
viability (ratio of live to dead cells, LIVE/DEAD) ([11]; 1 mM APAP): 30-50%
viability (LIVE/DEAD) ([11]; 10 mM APAP): few viable cells
